Measured values as given in US8518947B2, “(Heterocycle/tetrahydropyridine)-(piperazinyl)-1-alcanone and (heterocycle/dihydropyrrolidine)-(piperazinyl)-1-alcanone derivatives, and use thereof as p75 inhibitors” (Sanofi, priority 2009, dated 2013).

Columns and labels:
p75^NTR receptor = molecular target: T1, p75^NTR receptor (Homo sapiens, UniProt P08138); experiment: Study of the dimerization of the p75NTR receptor independently of its ligand (binding of soluble p75NTR-alkaline phosphatase to SK-N-BE Bep 75 cells); conditions: 1 hour preincubation at 37° C., soluble p75NTR-alkaline phosphatase 10 nM
T1 construct: the clone Bep 75, stably expressing the complete form of the human p75^NTR receptor; expressed in transfected cells; host or cells: SK-N-BE Bep 75 (human neuroblastoma clone stably expressing the receptor); the soluble p75NTR-AP came from the supernatant of transiently transfected HEK293 cells
T1 sequence (P08138 29-427): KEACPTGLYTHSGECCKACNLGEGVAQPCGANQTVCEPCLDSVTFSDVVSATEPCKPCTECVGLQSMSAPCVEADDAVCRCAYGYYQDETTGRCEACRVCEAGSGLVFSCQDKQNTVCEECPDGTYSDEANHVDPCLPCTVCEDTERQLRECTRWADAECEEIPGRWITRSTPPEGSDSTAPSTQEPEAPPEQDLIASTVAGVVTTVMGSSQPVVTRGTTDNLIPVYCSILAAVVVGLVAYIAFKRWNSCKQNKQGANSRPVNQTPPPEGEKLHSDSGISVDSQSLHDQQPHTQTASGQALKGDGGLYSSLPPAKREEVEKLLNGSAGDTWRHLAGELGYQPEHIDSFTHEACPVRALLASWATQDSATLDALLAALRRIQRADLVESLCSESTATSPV
Procedure: (§1) The SK-N-BE parent strain (human neuroblastoma) and the clone Bep 75, stably expressing the complete form of the human p75^NTR receptor (SK-N-BE Bep 75) are conventionally cultured in an RPMI culture medium containing FCS (5%), sodium pyruvate (1 mM) and glutamine (4 mM). For the SK-N-BE Bep 75 cells, hygromycin (200 μl/20 ml of medium) is added as selection agent.
Study of the Dimerization of the p75^NTR Receptor Independently of its Ligand
The study of the dimerization of the p75^NTR receptor is performed on a cell suspension of the strain SK-N-BE Bep 75. The cells (2.5×10^4 cells/well) are placed in wells (96-well plate) for 24 hours, and then preincubated for 1 hour at 37° C. in the presence or absence of the compounds according to the invention. Supernatent, obtained from a culture of human cells of HEK293 renal origin expressing, after 48 hours of transfection, and secreting a soluble form of the p75^NTR receptor (extracellular part of the receptor) coupled to an alkaline phosphatase, the latter at a final concentration of 10 nM, is then added. The quantification of the specific binding of the soluble receptor to the receptor present on SK-N-BE Bep 75 cells is determined by measuring the enzyme activity of the alkaline phosphatase after incubation of the cells for 1 hour at 37° C. in the presence of the supernatant. After filtering and transferring the filters into 24-well plates, the alkaline phosphatase activity is determined by adding CDP-Star chemoluminescent substrate (ready-to-use, Roche).

[1] = test system: strains of human neuroblastomas SH-SY-5Y and SK-N-BE Bep 75; experiment: Measurement of the apoptosis (cell death detection ELISA, cytoplasmic histones associated with DNA fragments); type: cell-based; conditions: SH-SY-5Y (48 hours) and SK-N-BE Bep 75 (24 hours), NGF 10 ng/ml or beta-amyloid peptide 10 μM, cell line not stated, read-out: IC50 in the apoptosis test
Procedure: The SH-SY-5Y strain (human neuroblastoma) is conventionally cultured in a DMEM culture medium (Dulbecco's Modified Eagle's Medium) (Gibco BRL, France) containing FCS (5%) (fetal calf serum) (Boehringer Mannheim, Germany), sodium pyruvate (1 mM) and glutamine (4 mM) in collagen-covered culture flasks (Becton Dickinson, France).
as §1
Measurement of the Apoptosis
The cells (strains of human neuroblastomas SH-SY-5Y and SK-N-BE Bep 75) are placed in Petri dishes 35 mm in diameter (Biocoat collagenl, (10^5 cells/well)) in a suitable culture medium containing 5% FCS, for 24 hours. The culture medium is then removed, the cells are rinsed with PBS (Dulbecco's Phosphate-buffered saline), and then either fresh medium containing 5% FCS, or medium containing NGF (at a concentration of 10 ng/ml), or beta-amyloid peptide (A1β1-40) (at a concentration of 10 μM) is then added, in the presence or absence of the compounds according to the invention. The apoptosis levels are measured 48 hours after the treatments in the case of the strain SH-SY-5Y, and 24 hours later in the case of the strain SK-N-BE Bep 75, by quantifying the cytoplasmic histones associated with the DNA fragments (cell death detection ELISA, Boehringer Mannheim, Germany). The apoptosis levels are expressed as the amount of oligonucleosomes/10^5 cells. Each value corresponds to the average of 9 experimental points distributed over 3 independent experiments.

IC50 (p75^NTR receptor) | melting point | SMILES | IC50 [1]
1.09 nM |  | C[C@@H]1CN(c2ccc(C(F)(F)F)cn2)[C@@H](C)CN1CC(=O)N1CC=C(c2cccc3ccoc23)CC1 [Compound 14, 1-(4-benzofuran-7-yl-3,6-dihydro-2H-pyridin-1-yl)-2-[(2R,5S)-2,5-dimethyl-4-(5-trifluoromethylpyridin-2-yl)piperazin-1-yl]ethanone] | 1.33 nM
0.94 nM | 138 to 139 °C | C[C@@H]1CN(c2ccc(C(F)(F)F)cn2)C[C@H](C)N1CC(=O)N1CC=C(c2cccc3ccoc23)CC1 [Compound 34, 1-(4-benzofuran-7-yl-3,6-dihydro-2H-pyridin-1-yl)-2-[(2S,6R)-2,6-dimethyl-4-(5-trifluoromethylpyridin-2-yl)piperazin-1-yl]ethanone] | 3.39 nM
20 nM |  | C[C@@H]1CN(c2ncc(F)cn2)C[C@H](C)N1CC(=O)N1CC=C(c2cccc3ccoc23)CC1 [Compound 36, 1-(4-benzofuran-7-yl-3,6-dihydro-2H-pyridin-1-yl)-2-[(2S,6R)-4-(5-fluoropyrimidin-2-yl)-2,6-dimethylpiperazin-1-yl]ethanone] | 

The remaining lines, values behind:

SMILES | IC50 (p75^NTR receptor) | melting point | IC50 [1]
CC1CN(c2cnccn2)CC(C)N1CC(=O)N1CC=C(c2cccc3ccsc23)CC1 (stereo not drawn) [Compound 1, 1-(4-benzo[b]thiophen-7-yl-3,6-dihydro-2H-pyridin-1-yl)-2-(3,5-dimethyl-2,3,5,6-tetrahydro[1,2′]bipyrazinyl-4-yl)ethanone] | 0.08 nM |  | 
C[C@@H]1CN(c2ccc3ccccc3n2)C[C@H](C)N1CC(=O)N1CC=C(c2cccc3ccsc23)CC1 [Compound 19, 1-(4-benzo[b]thiophen-7-yl-3,6-dihydro-2H-pyridin-1-yl)-2-((2S,6R)-2,6-dimethyl-4-quinolin-2-ylpiperazin-1-yl)ethanone] |  |  | 1.07 nM
O=C(CN1CCN(c2ccc(C(F)(F)F)cn2)C(=O)C1)N1CC=C(c2nccc3sccc23)CC1 [Compound 118, 4-[2-oxo-2-(4-thieno[3,2-c]pyridin-4-yl-3,6-dihydro-2H-pyridin-1-yl)ethyl]-1-(5-trifluoromethylpyridin-2-yl)piperazin-2-one] |  | 145 to 148 °C | 
